Assay results from patent publication US5384243A, “Method for screening an agent for its ability to prevent cell transformation” (priority 1992, dated 1995).

Experiments:
NIH/3T3 cells [1] = assay: [3H]NMS binding to membranes of vector (pDS, neo) transfectants
m2 mACHR [2] = target: T1, m2 mACHR (Homo sapiens, UniProt P08172)
T1 sequence (P08172 1-466): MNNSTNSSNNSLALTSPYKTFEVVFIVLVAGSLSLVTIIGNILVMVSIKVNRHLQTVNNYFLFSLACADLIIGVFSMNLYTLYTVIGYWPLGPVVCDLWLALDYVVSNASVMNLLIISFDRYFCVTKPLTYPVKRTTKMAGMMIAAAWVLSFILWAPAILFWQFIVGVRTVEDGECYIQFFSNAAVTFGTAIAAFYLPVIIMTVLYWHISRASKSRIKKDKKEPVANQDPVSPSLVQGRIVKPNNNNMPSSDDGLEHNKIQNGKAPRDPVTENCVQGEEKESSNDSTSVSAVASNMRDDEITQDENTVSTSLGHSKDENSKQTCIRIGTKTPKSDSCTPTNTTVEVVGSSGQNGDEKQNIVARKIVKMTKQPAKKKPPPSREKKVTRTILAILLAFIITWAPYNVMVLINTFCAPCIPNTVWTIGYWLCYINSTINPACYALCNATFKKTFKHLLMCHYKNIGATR

[3] = tested on: human muscarinic acetylcholine receptors; assay: Focus assay after transfection of NIH/3T3 cells, mACHR genes in general; assay type: cell-based; conditions: atropine 10 μM
Description: (§1) Transfection. […] Mass populations expressing the transfected neogene were selected for their ability to grow in the presence of geneticin (G418) (Gibco). Transformed foci were scored in stained plates of NIH/3T3 2-3 weeks after transfection. Individual G418 colonies or transformed foci were isolated with the aid of cloning cylinders, and maintained in Dulbecco's Modified Eagle Medium containing 10% calf serum.
(§2) DNA Constructs. […] Analysis of Receptor Expression.
(§3) Foci of transformation were scored after 2-3 weeks. The efficiency of transfection was determined by scoring neo resistant colonies in medium containing G418 (0.750 mg/ml). […] Results represent the average of three independent experiments.

m2 mACHR [4] = target: T1, m2 mACHR; assay: cAMP assay, forskolin-stimulated, m2 clones; assay type: cell-based; parameters: expressed in transfected cells; host or cells: NIH/3T3 murine fibroblasts (plasmid pDS m2); conditions: 1 mM carbachol, m2 (FIG. 4)
m4 mACHR [5] = target: T2, m4 mACHR (Homo sapiens, UniProt P08173); assay: Focus assay after transfection of NIH/3T3 cells, pDS m4; assay type: cell-based; parameters: expressed in transfected cells; host or cells: NIH/3T3 murine fibroblasts (plasmid pDS m4); conditions: for Focus-forming activity: pDS m4
T2 sequence (P08173 1-479): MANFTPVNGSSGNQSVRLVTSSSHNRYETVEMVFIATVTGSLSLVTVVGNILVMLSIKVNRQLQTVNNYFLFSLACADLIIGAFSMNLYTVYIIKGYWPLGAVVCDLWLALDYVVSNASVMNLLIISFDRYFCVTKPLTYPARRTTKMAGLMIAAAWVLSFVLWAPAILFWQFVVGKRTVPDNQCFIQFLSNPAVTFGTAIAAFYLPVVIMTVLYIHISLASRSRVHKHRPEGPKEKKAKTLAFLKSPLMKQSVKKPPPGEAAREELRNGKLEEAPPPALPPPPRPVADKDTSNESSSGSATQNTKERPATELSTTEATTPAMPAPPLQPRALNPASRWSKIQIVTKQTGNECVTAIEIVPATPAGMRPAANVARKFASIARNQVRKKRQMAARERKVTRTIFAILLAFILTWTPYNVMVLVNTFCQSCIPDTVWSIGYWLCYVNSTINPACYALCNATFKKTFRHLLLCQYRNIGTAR
Description: as §1, §2, §3

m5 mACHR = target: T3, m5 mACHR (Homo sapiens, UniProt P08912); assay: Focus assay after transfection of NIH/3T3 cells, pDS m5; assay type: cell-based; conditions: for Focus-forming activity: pDS m5
T3 construct: carbachol-dependent focus formation
T3 sequence (P08912 1-532): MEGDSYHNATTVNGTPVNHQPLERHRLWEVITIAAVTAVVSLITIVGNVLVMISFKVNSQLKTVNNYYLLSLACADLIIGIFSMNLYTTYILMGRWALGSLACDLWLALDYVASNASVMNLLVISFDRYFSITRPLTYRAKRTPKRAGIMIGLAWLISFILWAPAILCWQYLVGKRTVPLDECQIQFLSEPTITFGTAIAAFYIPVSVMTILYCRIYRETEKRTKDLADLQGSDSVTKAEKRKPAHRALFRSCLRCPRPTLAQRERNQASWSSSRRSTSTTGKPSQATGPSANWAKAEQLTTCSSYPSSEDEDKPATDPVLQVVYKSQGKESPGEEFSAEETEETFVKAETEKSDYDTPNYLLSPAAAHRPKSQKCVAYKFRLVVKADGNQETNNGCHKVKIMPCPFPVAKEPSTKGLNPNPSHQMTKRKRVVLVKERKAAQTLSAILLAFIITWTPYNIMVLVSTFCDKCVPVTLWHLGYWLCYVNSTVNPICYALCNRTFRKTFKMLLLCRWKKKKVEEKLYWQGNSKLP
Description: as §1, §2, §3

NIH/3T3 cells [6] = conditions: neo, binding 0
NIH/3T3 cells [7] = assay: PI hydrolysis in neo NIH/3T3 cells; assay type: cell-based, murine; conditions: Mus musculus, NIH3T3, 1 h, binding 0, read-out: PI Hydrolysis Maximal activation
Description: Phosphatidylinositol Hydrolysis.
EC50, half maximal concentration.

m2 mACHR [8] = target: T1, m2 mACHR; assay: Focus assay after transfection of NIH/3T3 cells, pDS m2; assay type: cell-based; parameters: expressed in transfected cells; host or cells: NIH/3T3 murine fibroblasts (plasmid pDS m2); conditions: for Focus-forming activity: pDS m2
Description: as §1, §2, §3

NIH/3T3 cells [9] = assay: Focus assay after transfection of NIH/3T3 cells, pDS vector; assay type: cell-based, murine
Description: as §1, §2, §3

m4 mACHR [10] = target: T2, m4 mACHR; assay: cAMP assay, forskolin-stimulated, m4 clones; assay type: cell-based; parameters: expressed in transfected cells; host or cells: NIH/3T3 murine fibroblasts (plasmid pDS m4); conditions: 1 mM carbachol, m4 (FIG. 4)
m1, m2, m3 or m4 mACHRs = assay: cAMP assay without forskolin; conditions: 1 mM carbachol, 10 min

C[N+]1(C)C2CC(OC(=O)C(CO)c3ccccc3)CC1C1OC12 (stereo not shown) [[^3 H]NMS, N-methylscopolamine]
Binding [3H]NMS (NIH/3T3 cells [1]; mass culture, pDS): < 1 fmoles [^3 H]NMS/mg protein
Binding (NIH/3T3 cells [1]; neo clone (Table 3)): 0 fmoles [^3 H]NMS/mg protein
Binding (m2 mACHR [2]; G418 selected m2 clone (Table 3)): 308 fmoles [^3 H]NMS/mg protein
Binding [3H]NMS (m2 mACHR [2]; mass culture, pDS m2): 90 fmoles [^3 H]NMS/mg protein

CN1[C@@H]2CC[C@H]1C[C@@H](OC(=O)C(CO)c1ccccc1)C2 (stereo partly shown) [atropine]
foci of transformation in cells maintained in atropine [3]: No foci of transformation were observed
carbachol induced focus-formation in presence of atropine ([3]; data not shown): abolished

C[N+](C)(C)CCOC(N)=O [carbachol]
cAMP levels in forskolin treated cells (m2 mACHR [4]): decreased
Focus-forming activity (m4 mACHR [5]; carbachol 10^-4 M): < 1 per pmol DNA
Focus-forming activity (m4 mACHR [5]; carbachol 10^-6 M): < 1 per pmol DNA
foci of transformation in presence of carbachol (m4 mACHR [5]; m4 transfected cultures): not m2 or m4
Focus-forming activity (m5 mACHR; carbachol 10^-4 M): 47 per pmol DNA
Focus-forming activity (m5 mACHR; carbachol 10^-6 M): < 5 per pmol DNA
foci of transformation in presence of carbachol (m5 mACHR; m5 transfectants): foci of transformation readily appeared
Transformation Maximal transportation (NIH/3T3 cells [6]): 0
Emax (NIH/3T3 cells [7]): 100%
Focus-forming activity (m2 mACHR [8]; carbachol 10^-4 M): < 1 per pmol DNA
Focus-forming activity (m2 mACHR [8]; carbachol 10^-6 M): < 1 per pmol DNA
foci of transformation in presence of carbachol (m2 mACHR [8]; m2 transfected cultures): not m2 or m4
Focus-forming activity (NIH/3T3 cells [9]; carbachol 10^-4 M): < 1 per pmol DNA
Focus-forming activity (NIH/3T3 cells [9]; carbachol 10^-6 M): < 1 per pmol DNA
cAMP levels in forskolin treated cells (m4 mACHR [10]): decreased
cAMP accumulation without forskolin (m1, m2, m3 or m4 mACHRs): did not accumulate detectable cAMP
